# Patent publication US20090047243A1, “COMBINATIONS FOR THE TREATMENT OF B-CELL PROLIFERATIVE DISORDERS” (priority 2007, published 2009)
# Counter-ions that a name gives are not always drawn. Like-named read-outs stand apart in the source and are kept apart here.
# Tests used:
# Assay in all cases: Anti-proliferation assay (ATPLite, 72 h)
# [1] = system: human multiple myeloma cells (MM.1R); format: cell-based; design: key: S = lnfX·lnfY·ΣIdata(Idata−ILoewe), volume over Loewe additivity; settings: MM.1R
# Description: (§1) ANBL6 and INA-6 culture media was also supplemented with 10 ng/ml IL-6. […] MM.1S, MM.1R, OCI-ly10, Karpas 422, and SU-DHL6 cells were provided by the Dana Farber Cancer Institute. H929, RPMI-8226, GA-10, and Farage cells were from ATCC (Cat #'s CCL-155, CRL-9068, CRL-2392 and CRL-2630 respectively). MOLP-8, EJM, KSM-12-PE, and OPM2 were from DSMZ. The ANBL6 and INA-6 cell lines were provided by the M. D. Anderson Cancer Research Center. Compounds were prepared in DMSO at 1000× the highest desired concentration. Master plates were generated consisting of serially diluted compounds in 2- or 3-fold dilutions in 384-well format. For single agent dose response curves, the master plates consisted of 9 individual compounds at 12 concentrations in 2- or 3-fold dilutions. For combination matrices, master plates consisted of individual compounds at 6 or 9 concentrations at 2- or 3-fold dilutions. […] To obtain combination data, two master plates were diluted into the assay plates. […] Thirty microliters of ATPLite (Perkin Elmer) at room temperature was then added to each well. […] Measurements were taken at the top of the well using a luminescence aperture and a read time of 0.1 seconds per well. The percent inhibition (% I) for each well was calculated using the following formula: % I=[(avg. untreated wells-treated well)/(avg. untreated wells)]×100. […] Negative inhibition values result from local variations in treated wells as compared to untreated wells. […] The uncertainty of each fitted parameter was estimated from the range over which the change in reduced chi-squared was less than one, or less than minimum reduced chi-squared if that minimum exceeded one, to allow for underestimated σI errors. Single agent curve data were used to define a dilution series for each compound to be used for combination screening in a 6×6 matrix format. […] The Loewe additivity model was used to quantify combination effects. […] A “Synergy Score” was also used, where the Synergy Score S=log fX log fY ΣIdata(Idata-ILoewe), summed over all non-single-agent concentration pairs, and where log fX,Y is the natural logarithm of the dilution factors used for each single agent. This effectively calculates a volume between the measured and Loewe additive response surfaces, weighted towards high inhibition and corrected for varying dilution factors. An uncertainty σS was calculated for each synergy score, based on the measured errors for the Idata values and standard error propagation.
# [2] = system: human multiple myeloma cells (MM.1S); format: cell-based; design: key to synergy score / synergy (score), PDEi × HE-NECA: S = lnfX·lnfY·ΣIdata(Idata−ILoewe), volume over Loewe additivity; settings: for inhibition at 0.256 µM: Papaverine 0.256 μM; for inhibition at 0.256 µM / inhibition at 0.767 µM / inhibition at 2.3 µM / inhibition at 6.9 µM / inhibition at 20.7 µM: read-out: percent inhibition of ATP in MM.1S cells; for inhibition at 0.767 µM: Papaverine 0.767 μM; for inhibition at 2.3 µM: Papaverine 2.3 μM; for inhibition at 6.9 µM: Papaverine 6.9 μM
# Description: as §1
# [3] = system: RPMI-8226 multiple myeloma cell line; format: cell-based, human; design: key: S = lnfX·lnfY·ΣIdata(Idata−ILoewe), volume over Loewe additivity; settings: RPMI-8226
# Description: as §1
# [4] = system: H929 multiple myeloma cell line; format: cell-based, human; design: key: S = lnfX·lnfY·ΣIdata(Idata−ILoewe), volume over Loewe additivity; settings: H929
# Description: as §1
# [5] = in combination with adenosine receptor agonist ADAC
# [6] = in combination with adenosine receptor agonist HE-NECA
# [7] = Homo sapiens, MM1.S, 10 ng/mL IL-6, HE-NECA conc. (μM)
# [8] = Homo sapiens, MM1.S, no IL-6, HE-NECA conc. (nM)
# [9] = PDE inhibitor crossed with (S) ENBA, MM.1S
# [10] = PDE inhibitor crossed with ADAC, MM.1S
# [11] = PDE inhibitor crossed with Chloro-IB-MECA, MM.1S
# [12] = PDE inhibitor crossed with HE-NECA, MM.1S
# [13] = in combination with adenosine receptor agonist ADAC, MM.1S
# [14] = PDE inhibitor crossed with (S) ENBA
# [15] = PDE inhibitor crossed with ADAC
# [16] = PDE inhibitor crossed with Chloro-IB-MECA
# [17] = PDE inhibitor crossed with HE-NECA
# [18] = MM.1S, compared among four adenosine receptor antagonists
smiles,measurement,setting,value
"COc1ccc(Cc2nccc3cc(OC)c(OC)cc23)cc1OC [Papaverine hydrochloride, 1-[(3.4-dimethoxyphenyl)-methyl]-6,7-dimethoxyisoquinolone]",synergy score,[1]; [5],3.395
same,synergy score,[1]; [6],2.128
same,inhibition at 0.256 µM,[2]; [7],-2.4%
same,inhibition at 0.767 µM,[2]; [7],-0.1%
same,inhibition at 2.3 µM,[2]; [7],7.9%
same,inhibition at 6.9 µM,[2]; [7],46%
same,inhibition at 20.7 µM,"[2]; Homo sapiens, MM1.S, 10 ng/mL IL-6, Papaverine 20.7 μM, HE-NECA conc. (μM)",70%
same,inhibition at 0.256 µM,[2]; [8],9.1%
same,inhibition at 0.767 µM,[2]; [8],8.8%
same,inhibition at 2.3 µM,[2]; [8],23%
same,inhibition at 6.9 µM,[2]; [8],46%
same,inhibition at 20.7 µM,"[2]; Homo sapiens, MM1.S, no IL-6, Papaverine 20.7 μM, HE-NECA conc. (nM)",68%
same,synergy score,[2]; [9],2.24
same,synergy score,[2]; [10],3.55
same,synergy score,[2]; [11],2.67
same,synergy score,[2]; [12],2.09
same,synergy score,[2]; [13],3.554
same,synergy score,"[2]; in combination with adenosine receptor agonist HE-NECA, MM.1S",2.087
same,synergy score,[3]; [5],1.158
same,synergy score,[3]; [6],0.3933
same,synergy score,[4]; [14],0.77
same,synergy score,[4]; [15],1.19
same,synergy score,[4]; [16],1.42
same,synergy score,[4]; [17],1.03
same,synergy score,[4]; [5],1.193
same,synergy score,[4]; [6],1.025
CNC(=O)[C@H]1O[C@@H](n2cnc3c(NCc4cccc(I)c4)nc(Cl)nc32)[C@H](O)[C@@H]1O.COc1cc2c(cc1OC)-c1cc(=Nc3c(C)cc(C)cc3C)n(C)c(=O)n1CC2 [CI-IB-MECA + Trequinsin],percent inhibition of ATP in MM.1S cells,"[2]; after addition of 174 nM DPCPX, CI-IB-MECA 2.96 μM, Trequinsin conc. (μM)",94%
same,percent inhibition of ATP in MM.1S cells,"[2]; no adenosine receptor antagonist added, CI-IB-MECA 1.48 μM, Trequinsin conc. (μM)",93%
"OCCN(CCO)c1nc(N2CCCCC2)c2nc(N(CCO)CCO)nc(N3CCCCC3)c2n1 [Dipyridamole, 2-{[9-(bis(2-hydroxyethyl)amino)-2,7-bis(1-piperidyl)-3,5,8,10-tetrazabicyclo[4.4.0]deca-2,4,7,9,11-pentaen-4-yl]-(2-hydroxyethyl)amino}ethanol]",synergy score,[1]; [5],1.34
same,synergy score,[2]; [9],0.17
same,synergy score,[2]; [10],1.18
same,synergy score,[2]; [11],0.20
same,synergy score,[2]; [12],0.08
same,synergy score,[2]; [13],1.18
same,synergy score,[3]; [5],0.62
same,synergy score,[4]; [14],0.26
same,synergy score,[4]; [15],2.05
same,synergy score,[4]; [16],0.08
same,synergy score,[4]; [17],0.13
same,synergy score,[4]; [5],2.05
CCCCC#Cc1nc(N)c2ncn([C@@H]3O[C@H](C(=O)NCC)[C@@H](O)[C@H]3O)c2n1.COc1ccc(Cc2nccc3cc(OC)c(OC)cc23)cc1OC [HE-NECA + Papaverine],percent inhibition of ATP in MM.1S cells,"[2]; 10 ng/mL IL-6, Papaverine 20.7 μM, HE-NECA conc. (μM)",97%
same,percent inhibition of ATP in MM.1S cells,"[2]; no IL-6, Papaverine 20.7 μM, HE-NECA conc. (nM)",95%
Nc1nc2c(cnn2CCc2ccccc2)c2nc(-c3ccco3)nn12 [SCH 58261],blocking of chloro-IB-MECA antiproliferative activity,"[2]; MM.1S, 72 h, antagonist SCH 58261 at 78 nM",> 50%
same,antagonist effect on (S)-ENBA inhibition of cell growth,"[2]; MM.1S, 72 h, SCH 58261 78 nM, MRS 1523 183 nM, DPCPX 178 nM, MRS 1574 175 nM",most active of the antagonists
same,blocking of chloro-IB-MECA antiproliferative activity,"[2]; MM.1S, antagonist concentration increased 2-fold",> 70%
same,antagonist effect on chloro-IB-MECA crossed with trequinsin,[2]; [18],most active compound
same,antagonist effect on synergy of (S)-ENBA crossed with trequinsin,[2]; [18],most active compound
C[C@@H]1C[C@H]2[C@@H]3CCC4=CC(=O)C=C[C@]4(C)[C@@]3(F)[C@@H](O)C[C@]2(C)[C@@]1(O)C(=O)CO [dexamethasone],IC50,"[2]; Homo sapiens, MM1.S, 72 h, MM.1S, 72 h, +IL-6 (10 ng/ml)",61.7 nM
same,IC50,"[2]; Homo sapiens, MM1.S, 72 h, MM.1S, no IL-6",179 nM
same,change in IC50 when cultured in the presence of IL-6,"[2]; MM.1S, 10 ng/ml IL-6 vs no IL-6",2.9 fold
CCCOc1ccccc1-c1nc2nn[nH]c2c(=O)[nH]1 [Zaprinast],synergy score,[2]; [9],0.16
same,synergy score,[2]; [11],0.05
same,synergy score,[2]; [12],0.025
same,synergy score,[4]; [14],0.05
same,synergy score,[4]; [16],0.03
same,synergy score,[4]; [17],0.13
CCCc1nn(C)c2c(=O)[nH]c(-c3cc(S(=O)(=O)N4CCN(C)CC4)ccc3OCC)nc12 [Sildenafil],synergy score,[2]; [9],0
same,synergy score,[2]; [10],0
same,synergy score,[2]; [11],0
same,synergy score,[2]; [12],0
same,synergy score,[4]; [14],0.03
same,synergy score,[4]; [15],0.14
same,synergy score,[4]; [16],0.03
same,synergy score,[4]; [17],0
"CCCn1c(=O)c2[nH]c(C3CCCC3)nc2n(CCC)c1=O [DPCPX, 8-cyclopentyl-1,3-dipropylxanthine]",inhibition at 0.174 µM,"[2]; Homo sapiens, MM1.S, after addition of 174 nM DPCPX, CI-IB-MECA 0 μM, Trequinsin conc. (μM), read-out: Percent inhibition of ATP in MM.1S cells",-7.5%
CCCCC#Cc1nc(N)c2ncn([C@@H]3O[C@H](C(=O)NCC)[C@@H](O)[C@H]3O)c2n1.COc1cc2c(cc1OC)-c1cc(=Nc3c(C)cc(C)cc3C)n(C)c(=O)n1CC2 [HE-NECA + Trequinsin],percent inhibition of ATP in MM.1S cells,"[2]; 10 ng/mL IL-6, Trequinsin 3.39 μM, HE-NECA conc. (nM)",94%
same,percent inhibition of ATP in MM.1S cells,"[2]; 10 ng/mL IL-6, Trequinsin 30.5 μM, HE-NECA conc. (nM)",100%
same,percent inhibition of ATP in MM.1S cells,"[2]; no IL-6, Trequinsin 30.5 (unit not given), HE-NECA conc. (nM)",98%
CNC(=O)[C@H]1O[C@@H](n2cnc3c(NCc4cccc(I)c4)nc(Cl)nc32)[C@H](O)[C@@H]1O.COc1cc2c(cc1OC)-c1cc(=Nc3c(C)cc(C)cc3C)n(C)c(=O)n1CC2 [Cl-IB-MECA + Trequinsin],percent inhibition of ATP in MM.1S cells,"[2]; after addition of 170 nM MRS 1523, Cl-IB-MECA 2.96 μM, Trequinsin conc. (μM)",93%
CCCn1c(=O)c2[nH]c(-c3ccc(OCC(=O)Nc4ccc(C#N)cc4)cc3)nc2n(CCC)c1=O [MRS 1574],inhibition at 0.175 µM,"[2]; Homo sapiens, MM1.S, after addition of 175 nM MRS 1754, Cl-IB-MECA 0 μM, Trequinsin conc. (μM), read-out: Percent inhibition of ATP in MM.1S cells",-13%
COc1cc2c(cc1OC)-c1cc(=Nc3c(C)cc(C)cc3C)n(C)c(=O)n1CC2.NCCNC(=O)Cc1ccc(NC(=O)Cc2ccc(Nc3ncnc4c3ncn4[C@@H]3O[C@H](CO)[C@@H](O)[C@H]3O)cc2)cc1 [ADAC + Trequinsin],percent inhibition of ATP in MM.1S cells,"[2]; 10 ng/mL IL-6, ADAC 1.17 μM, Trequinsin conc. (μM)",94%
same,percent inhibition of ATP in MM.1S cells,"[2]; 10 ng/mL IL-6, ADAC 3.51 μM, Trequinsin conc. (μM)",93%
same,percent inhibition of ATP in MM.1S cells,"[2]; 10 ng/mL IL-6, ADAC 10.5 μM, Trequinsin conc. (μM)",93%
same,percent inhibition of ATP in MM.1S cells,"[2]; 10 ng/mL IL-6, ADAC 31.6 μM, Trequinsin conc. (μM)",93%
same,percent inhibition of ATP in MM.1S cells,"[2]; 10 ng/mL IL-6, ADAC […], Trequinsin conc. (μM)",95%
